As a reminder, the IC50 is the point on the concentration scale where inhibition reaches its midpoint. Lower therefore signals greater potency. One may read the inhibition as the relative decrease from the control value, in per cent.

Consider twelve compounds from publication PMC4498724 (Drug Design, Development and Therapy, 2015).

For data set [1], the target named is T1, human CK2 holoenzyme (Homo sapiens, UniProt P68400). The settings on record: IC50 (CK2) divided by IC50 (ABCG2) of Table 1.
T1 sequence (P68400 whole entry): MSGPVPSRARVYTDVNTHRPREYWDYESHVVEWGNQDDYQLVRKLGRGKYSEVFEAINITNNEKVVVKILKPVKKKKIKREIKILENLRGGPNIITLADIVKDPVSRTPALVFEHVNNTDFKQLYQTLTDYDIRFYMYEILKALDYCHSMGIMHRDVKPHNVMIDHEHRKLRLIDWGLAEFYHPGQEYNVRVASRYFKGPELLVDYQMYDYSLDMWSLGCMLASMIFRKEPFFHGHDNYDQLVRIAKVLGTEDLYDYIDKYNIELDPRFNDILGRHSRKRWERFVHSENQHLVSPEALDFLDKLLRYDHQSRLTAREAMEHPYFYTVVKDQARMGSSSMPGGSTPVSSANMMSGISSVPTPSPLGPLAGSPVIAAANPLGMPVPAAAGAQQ
T1 sequence (P67870 whole entry partner): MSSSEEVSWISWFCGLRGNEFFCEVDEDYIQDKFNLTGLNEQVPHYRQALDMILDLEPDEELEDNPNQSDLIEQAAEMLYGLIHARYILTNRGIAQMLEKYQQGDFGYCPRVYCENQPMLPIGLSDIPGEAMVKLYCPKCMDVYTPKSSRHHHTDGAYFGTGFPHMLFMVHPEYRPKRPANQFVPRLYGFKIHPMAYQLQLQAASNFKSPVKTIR
Data set [2] deals with T2, ABCG2 (Homo sapiens, UniProt Q9UNQ0).
T2 sequence (Q9UNQ0 1-655): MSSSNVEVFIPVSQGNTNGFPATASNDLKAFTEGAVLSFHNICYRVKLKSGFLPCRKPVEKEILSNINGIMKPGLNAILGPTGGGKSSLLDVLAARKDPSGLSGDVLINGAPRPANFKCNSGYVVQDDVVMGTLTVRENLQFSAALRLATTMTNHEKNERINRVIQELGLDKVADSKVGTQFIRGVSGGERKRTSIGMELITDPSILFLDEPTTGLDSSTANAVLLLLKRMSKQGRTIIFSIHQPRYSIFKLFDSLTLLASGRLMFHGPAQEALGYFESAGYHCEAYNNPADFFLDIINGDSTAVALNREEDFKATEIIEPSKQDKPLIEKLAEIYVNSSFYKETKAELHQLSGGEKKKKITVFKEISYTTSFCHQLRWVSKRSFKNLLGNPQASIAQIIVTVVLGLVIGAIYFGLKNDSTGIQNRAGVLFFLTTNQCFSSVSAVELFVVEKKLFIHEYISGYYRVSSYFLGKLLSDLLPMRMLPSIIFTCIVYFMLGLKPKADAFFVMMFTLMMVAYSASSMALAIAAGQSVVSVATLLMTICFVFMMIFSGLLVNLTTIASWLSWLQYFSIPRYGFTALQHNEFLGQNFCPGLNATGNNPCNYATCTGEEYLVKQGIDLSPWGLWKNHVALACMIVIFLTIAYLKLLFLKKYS
The data set can be described thus: Vanadate-sensitive ATPase activity of ABCG2 in Sf9 insect cell membranes. The settings on record: 2 μM compound; for Stimulation of vanadate-sensitive ABCG2 ATPase activity: basal activity without inhibitor taken as 100%.

Data set [3] has as its target T1, human CK2 holoenzyme. Nature of the data set: biochemical. The settings on record: for inhibition at 10 µM: read-out: CK2 inhibition % at 10 µM.
Data set [4] concerns the target T2, ABCG2. The data set can be described thus: Inhibition of ABCG2-mediated mitoxantrone efflux in ABCG2-transfected cells. The class given is cell-based.
Another data set relates to Wild-type HEK293 cells. Nature of the data set: Intrinsic cytotoxicity, MTT cell-survival assay. The settings on record: 72 hours of treatment. A general note: Tetrazolium dyes change colour on reduction, which living cells bring about.
A further data set has as its target MRP1/ABCC1 (Homo sapiens, UniProt P33527). Nature of the data set: Inhibition of MRP1-mediated calcein efflux in HEK293-ABCC1 cells. The settings on record: 2 μM or 10 μM; 35 μM verapamil taken as 100%. Format: cell-based.

MRP1/ABCC1, sequence (P33527 whole entry): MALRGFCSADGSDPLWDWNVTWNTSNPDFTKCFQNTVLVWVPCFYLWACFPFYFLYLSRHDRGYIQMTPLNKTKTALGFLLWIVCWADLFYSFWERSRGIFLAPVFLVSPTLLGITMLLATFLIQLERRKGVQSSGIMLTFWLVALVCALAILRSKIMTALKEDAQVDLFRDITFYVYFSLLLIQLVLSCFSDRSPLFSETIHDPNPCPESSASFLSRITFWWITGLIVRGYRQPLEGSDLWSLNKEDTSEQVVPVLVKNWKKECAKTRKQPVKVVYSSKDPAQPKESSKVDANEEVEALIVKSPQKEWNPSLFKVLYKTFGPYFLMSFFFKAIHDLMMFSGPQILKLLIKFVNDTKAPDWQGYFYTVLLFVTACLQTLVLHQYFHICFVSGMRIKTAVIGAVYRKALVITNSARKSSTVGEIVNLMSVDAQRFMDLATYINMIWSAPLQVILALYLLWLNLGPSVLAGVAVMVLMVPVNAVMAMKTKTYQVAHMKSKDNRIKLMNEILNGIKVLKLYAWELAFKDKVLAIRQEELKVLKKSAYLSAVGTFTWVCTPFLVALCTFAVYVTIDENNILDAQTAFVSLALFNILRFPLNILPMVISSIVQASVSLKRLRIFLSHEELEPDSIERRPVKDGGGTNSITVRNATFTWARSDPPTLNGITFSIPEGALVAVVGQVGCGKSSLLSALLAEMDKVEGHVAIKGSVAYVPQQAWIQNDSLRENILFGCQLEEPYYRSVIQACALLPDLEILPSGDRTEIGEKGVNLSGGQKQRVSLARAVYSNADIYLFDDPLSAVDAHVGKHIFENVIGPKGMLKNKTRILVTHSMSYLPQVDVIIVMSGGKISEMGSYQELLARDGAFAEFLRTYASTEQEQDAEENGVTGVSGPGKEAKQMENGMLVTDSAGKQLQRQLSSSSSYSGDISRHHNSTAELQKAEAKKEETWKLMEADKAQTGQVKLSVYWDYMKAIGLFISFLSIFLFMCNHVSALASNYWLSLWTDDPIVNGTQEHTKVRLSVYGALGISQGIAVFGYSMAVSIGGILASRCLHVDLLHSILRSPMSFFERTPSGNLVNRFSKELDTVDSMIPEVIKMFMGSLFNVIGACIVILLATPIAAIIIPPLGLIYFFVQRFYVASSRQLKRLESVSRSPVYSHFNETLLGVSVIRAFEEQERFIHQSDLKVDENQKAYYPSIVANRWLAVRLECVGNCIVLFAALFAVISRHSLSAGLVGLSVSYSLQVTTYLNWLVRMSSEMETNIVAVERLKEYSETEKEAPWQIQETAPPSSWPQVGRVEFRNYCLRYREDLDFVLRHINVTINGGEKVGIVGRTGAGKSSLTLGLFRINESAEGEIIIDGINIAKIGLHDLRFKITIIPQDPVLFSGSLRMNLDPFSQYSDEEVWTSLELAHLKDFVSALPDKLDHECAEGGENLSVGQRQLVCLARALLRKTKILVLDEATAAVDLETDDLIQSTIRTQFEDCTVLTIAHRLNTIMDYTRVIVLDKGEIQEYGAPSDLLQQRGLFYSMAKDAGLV

The compound `O=C1c2ccccc2-c2c1c1c(O)cccc1n2CCc1ccccc1` [Compound 5c, 9-Hydroxy-5-(2-phenylethyl)-5H-indeno[1,2-b]indole-10-one] gave an AGCG2/CK2 on human CK2 holoenzyme [1] of 47. Besides, on ABCG2 [2], the “Stimulation of vanadate-sensitive ABCG2 ATPase activity” value (shortened to “Stimulation”) is listed as 2- to 4.5 fold. For the same compound, the values for the concentration for half-maximal inhibition (IC50) against human CK2 holoenzyme [3] and at ABCG2 [4] were 7.5 µM and 0.16 ± 0.02 µM, respectively. Also, the inhibition at 10 µM on human CK2 holoenzyme [3] stood at 57%. Further, the “Cytotoxicity IG50” value with Wild-type HEK293 cells came out at 42.7 ± 9.7 µM. Also, the “Inhibition of MRP1-mediated calcein efflux” value on MRP1/ABCC1 is recorded as “very limited, if any, inhibition”.

For the compound `O=C1c2ccccc2-c2c1c1c(O)cccc1n2CCCc1ccccc1` [Compound 5d, 9-Hydroxy-5-(3-phenylpropyl)-5H-indeno[1,2-b]indole-10-one], the “Stimulation” value at ABCG2 [2] is reported as 2- to 4.5 fold. Further, at human CK2 holoenzyme [3], the concentration for half-maximal inhibition (IC50) was roughly 20 µM and the inhibition at 10 µM came to 27%. The same compound showed an IC50 at ABCG2 [4] of 0.64 ± 0.23 µM.

With `Cc1cc(O)c2c3c(n(CCc4ccccc4)c2c1)-c1ccccc1C3=O` [Compound 5f, 9-Hydroxy-7-methyl-5-(2-phenylethyl)-5H-indeno[1,2-b]indole-10-one], on ABCG2 [2], the “Stimulation” value is on record as 2- to 4.5 fold. For the same compound, the IC50 on ABCG2 [4] came out at 0.16 ± 0.01 µM. For the same compound, the “Cytotoxicity IG50” value with Wild-type HEK293 cells was 42.3 ± 2.8 µM. In addition, on MRP1/ABCC1, the “Inhibition of MRP1-mediated calcein efflux” value was “very limited, if any, inhibition”.

As to `O=C1c2ccccc2-c2c1c1c(O)cc(-c3ccccc3)cc1n2CCc1ccccc1` [Compound 5g, 9-Hydroxy-7-phenyl-5-(2-phenylethyl)-5H-indeno[1,2-b]indole-10-one], the “Stimulation” value at ABCG2 [2] is reported as 2- to 4.5 fold. The IC50 against human CK2 holoenzyme [3] is roughly 11 µM; against ABCG2 [4], 0.51 ± 0.09 µM.

Take `COc1ccccc1CCn1c2c(c3c(O)cccc31)C(=O)c1ccccc1-2` [Compound 5h, 9-Hydroxy-5-[2-(2-methoxyphenyl)ethyl]-5H-indeno[1,2-b]indole-10-one]: the “Stimulation” value on ABCG2 [2] is on record as 2- to 4.5 fold. For the same compound, the results for the half-inhibitory concentration (IC50) on human CK2 holoenzyme [3] and at ABCG2 [4] were 1.3 µM and 0.15 ± 0.01 µM, respectively. The “Cytotoxicity IG50” value with Wild-type HEK293 cells is 54 ± 14 µM. Further, the “Inhibition of MRP1-mediated calcein efflux” value on MRP1/ABCC1 is “very limited, if any, inhibition”.

`COc1cccc(CCn2c3c(c4c(O)cccc42)C(=O)c2ccccc2-3)c1` [Compound 5i, 9-Hydroxy-5-[2-(3-methoxyphenyl)ethyl]-5H-indeno[1,2-b]indole-10-one]: the “Stimulation” value on ABCG2 [2] was 2- to 4.5 fold. At human CK2 holoenzyme [3], the IC50 was roughly 11.5 µM and the inhibition at 10 µM was found to be 44%. This compound registered an IC50 on ABCG2 [4] of 0.37 ± 0.09 µM. In the data set with Wild-type HEK293 cells, the “Cytotoxicity IG50” value was 45.7 ± 6.1 µM.

`COc1ccc(CCn2c3c(c4c(O)cccc42)C(=O)c2ccccc2-3)cc1` [Compound 5j, 9-Hydroxy-5-[2-(4-methoxyphenyl)ethyl]-5H-indeno[1,2-b]indole-10-one]: the “Effect on ABCG2 basal ATPase activity” value on ABCG2 [2] is given as “maximal stimulation”. Further, the “Stimulation” value at ABCG2 [2] was 2- to 4.5 fold. Also, the IC50 was roughly 14 µM against human CK2 holoenzyme [3] and 0.2 ± 0.01 µM against ABCG2 [4].

Consider `O=c1ccc(=O)c2c1c1c(=O)c3ccccc3c1n2CCc1ccccc1` [Compound 6c, 5-(2-Phenylethyl)-5H-indeno[1,2-b]indole-6,9,10-trione], for which the “Effect on ABCG2 basal ATPase activity” value at ABCG2 [2] is recorded as “did not produce any effect”. Also, at human CK2 holoenzyme [3], the half-inhibitory concentration (IC50) was roughly 13 µM and the inhibition at 10 µM was 40%. The same compound came in with a 50% inhibitory concentration (IC50) at ABCG2 [4] of roughly 30 µM. The “Cytotoxicity IG50” value in the data set on Wild-type HEK293 cells is 6.9 ± 2.1 µM.

`O=c1ccc(=O)c2c1c1c(=O)c3ccccc3c1n2CCCc1ccccc1` [Compound 6d, 5-(3-Phenylpropyl)-5H-indeno[1,2-b] indole-6,9,10-trione]: the IC50 on human CK2 holoenzyme [3] is 6.4 µM; at ABCG2 [4], roughly 15 µM. Besides, the inhibition at 10 µM on human CK2 holoenzyme [3] came out at 60%. In the data set on Wild-type HEK293 cells, the “Cytotoxicity IG50” value worked out at 6.8 ± 0.5 µM.

In the case of `O=c1cc(-c2ccccc2)c(=O)c2c1c1c(=O)c3ccccc3c1n2Cc1ccccc1` [Compound 6e, 5-Benzyl-7-phenyl-5H-indeno[1,2-b]indole-6,9,10-trione], at ABCG2 [2], the “Effect on ABCG2 basal ATPase activity” value is reported as “did not produce any effect”. At human CK2 holoenzyme [3], the IC50 was roughly 13 µM and the inhibition at 10 µM amounted to 40%. This compound displayed an IC50 on ABCG2 [4] of roughly 13 µM. Also, the “Cytotoxicity IG50” value in the data set on Wild-type HEK293 cells is 7.1 ± 1.1 µM.

In the case of `Cc1cc(=O)c2c3c(=O)c4ccccc4c3n(CCc3ccccc3)c2c1=O` [Compound 6f, 7-Methyl-5-(2-phenylethyl)-5H-indeno[1,2-b]indole-6,9,10-trione], the “Effect on ABCG2 basal ATPase activity” value at ABCG2 [2] is recorded as “did not produce any effect”. At ABCG2 [4], 0.84 ± 0.31 µM corresponded to half-maximal inhibition (IC50). In the data set on Wild-type HEK293 cells, the “Cytotoxicity IG50” value amounted to 15.6 ± 5.9 µM. Besides, the “Inhibition of MRP1-mediated calcein efflux” value on MRP1/ABCC1 is on record as “very limited, if any, inhibition”.

As for `O=c1cc(-c2ccccc2)c(=O)c2c1c1c(=O)c3ccccc3c1n2CCc1ccccc1` [Compound 6g, 7-Phenyl-5-(2-phenylethyl)-5H-indeno[1,2-b]indole-6,9,10-trione], the “Effect on ABCG2 basal ATPase activity” value at ABCG2 [2] is “very limited stimulation”. Besides, the half-maximal inhibitory concentration (IC50) against human CK2 holoenzyme [3] was roughly 11.5 µM; at ABCG2 [4], 0.43 ± 0.01 µM. In addition, the inhibition at 10 µM at human CK2 holoenzyme [3] was found to be 44%. Also, the “Cytotoxicity IG50” value in the data set with Wild-type HEK293 cells is 3.7 ± 2.2 µM. On MRP1/ABCC1, the “Inhibition of MRP1-mediated calcein efflux” value is “very limited, if any, inhibition”.
